Measured values published in ChEMBL document CHEMBL1201862, “PubChem BioAssay data set” (2004).
The source made the active and inactive calls. Cut-off read from the data, not from the text of the source: actives have a measured IC50 and inactives only a lower limit.

Experiments:
Assay type in all cases: functional
Caspase-3 = molecular target: T1, Caspase-3 (Homo sapiens, UniProt P42574);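 note: Dose-response selectivity test against caspase-3 for candidate inhibitors of sentrin-specific proteases (SENPs)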
T1 sequence (P42574 whole entry): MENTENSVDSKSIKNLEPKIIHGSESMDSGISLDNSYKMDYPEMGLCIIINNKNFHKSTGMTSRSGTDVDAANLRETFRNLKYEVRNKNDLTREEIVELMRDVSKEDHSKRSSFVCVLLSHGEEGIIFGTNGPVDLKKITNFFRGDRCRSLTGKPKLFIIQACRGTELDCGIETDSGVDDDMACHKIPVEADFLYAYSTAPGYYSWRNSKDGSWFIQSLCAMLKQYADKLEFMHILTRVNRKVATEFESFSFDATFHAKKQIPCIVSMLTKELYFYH

[1] = molecular target: T2, Sentrin-specific protease 7 (Homo sapiens, UniProt Q9BQF6);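 note: Luminescence-based dose-response confirmation of ultra-high-throughput screening hits, measuring inhibition of SENP7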
T2 sequence (Q9BQF6 whole entry): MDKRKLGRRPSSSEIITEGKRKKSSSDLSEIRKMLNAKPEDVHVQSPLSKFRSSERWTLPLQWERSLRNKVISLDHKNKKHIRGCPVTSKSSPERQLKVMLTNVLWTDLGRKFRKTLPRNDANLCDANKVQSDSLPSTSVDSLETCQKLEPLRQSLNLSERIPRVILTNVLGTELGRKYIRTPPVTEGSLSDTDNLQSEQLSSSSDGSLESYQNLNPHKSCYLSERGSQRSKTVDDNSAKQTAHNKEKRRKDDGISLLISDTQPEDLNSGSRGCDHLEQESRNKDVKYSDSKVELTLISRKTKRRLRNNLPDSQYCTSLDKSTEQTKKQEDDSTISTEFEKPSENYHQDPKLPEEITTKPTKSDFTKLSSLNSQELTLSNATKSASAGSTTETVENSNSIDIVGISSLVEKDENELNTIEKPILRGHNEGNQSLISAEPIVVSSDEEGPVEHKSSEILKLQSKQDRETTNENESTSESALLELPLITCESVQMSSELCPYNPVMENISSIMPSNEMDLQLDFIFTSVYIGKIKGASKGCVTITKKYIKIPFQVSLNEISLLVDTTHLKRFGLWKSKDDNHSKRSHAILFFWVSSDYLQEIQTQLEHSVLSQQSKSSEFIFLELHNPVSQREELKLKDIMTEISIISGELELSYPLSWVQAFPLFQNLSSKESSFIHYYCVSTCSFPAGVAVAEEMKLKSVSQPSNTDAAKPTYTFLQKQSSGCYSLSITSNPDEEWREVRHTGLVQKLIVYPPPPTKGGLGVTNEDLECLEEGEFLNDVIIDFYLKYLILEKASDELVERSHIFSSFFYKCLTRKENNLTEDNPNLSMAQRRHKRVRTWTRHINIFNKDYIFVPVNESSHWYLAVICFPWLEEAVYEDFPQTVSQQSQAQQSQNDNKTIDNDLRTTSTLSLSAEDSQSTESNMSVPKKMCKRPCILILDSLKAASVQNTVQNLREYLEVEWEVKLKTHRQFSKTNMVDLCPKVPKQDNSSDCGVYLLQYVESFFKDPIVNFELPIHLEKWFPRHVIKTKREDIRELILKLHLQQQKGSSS

[2] = molecular target: T3, Apoptotic protease-activating factor 1 (Homo sapiens, UniProt O14727)
T3 sequence (O14727 whole entry): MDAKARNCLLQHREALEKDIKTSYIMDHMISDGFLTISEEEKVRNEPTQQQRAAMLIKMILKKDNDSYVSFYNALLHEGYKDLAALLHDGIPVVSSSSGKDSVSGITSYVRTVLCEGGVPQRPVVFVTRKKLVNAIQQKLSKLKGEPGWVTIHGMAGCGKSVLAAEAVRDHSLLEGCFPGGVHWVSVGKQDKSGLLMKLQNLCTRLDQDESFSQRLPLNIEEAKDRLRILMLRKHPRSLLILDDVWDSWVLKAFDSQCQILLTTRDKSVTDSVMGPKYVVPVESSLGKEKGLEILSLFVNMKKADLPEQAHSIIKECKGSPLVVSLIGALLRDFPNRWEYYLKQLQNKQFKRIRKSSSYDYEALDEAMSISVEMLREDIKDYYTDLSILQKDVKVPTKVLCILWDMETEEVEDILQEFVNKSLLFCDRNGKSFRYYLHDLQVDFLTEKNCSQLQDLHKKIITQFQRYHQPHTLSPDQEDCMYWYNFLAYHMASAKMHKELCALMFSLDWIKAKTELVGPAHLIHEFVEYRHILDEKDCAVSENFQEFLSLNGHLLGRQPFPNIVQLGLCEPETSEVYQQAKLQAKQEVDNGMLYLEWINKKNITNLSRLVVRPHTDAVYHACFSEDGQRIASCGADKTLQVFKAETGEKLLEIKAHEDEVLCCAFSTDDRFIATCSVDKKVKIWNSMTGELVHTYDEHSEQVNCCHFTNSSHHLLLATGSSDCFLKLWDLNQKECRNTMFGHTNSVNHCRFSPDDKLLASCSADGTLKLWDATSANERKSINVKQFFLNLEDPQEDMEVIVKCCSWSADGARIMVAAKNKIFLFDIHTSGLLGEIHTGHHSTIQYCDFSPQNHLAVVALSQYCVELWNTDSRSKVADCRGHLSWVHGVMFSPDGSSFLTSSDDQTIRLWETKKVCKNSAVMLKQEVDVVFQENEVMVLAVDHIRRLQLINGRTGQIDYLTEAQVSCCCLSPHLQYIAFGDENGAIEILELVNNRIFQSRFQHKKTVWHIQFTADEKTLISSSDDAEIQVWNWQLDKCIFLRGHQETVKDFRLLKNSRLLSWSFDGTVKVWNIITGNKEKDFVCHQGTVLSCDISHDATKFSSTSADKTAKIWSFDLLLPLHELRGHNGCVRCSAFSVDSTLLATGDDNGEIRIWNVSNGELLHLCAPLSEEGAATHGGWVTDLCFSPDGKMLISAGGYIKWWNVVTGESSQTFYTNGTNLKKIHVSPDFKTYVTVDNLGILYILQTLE

| SMILES | IC50 (Caspase-3) | IC50 [1] | IC50 [2] |
| --- | --- | --- | --- |
| Oc1ccc(/C=N/Nc2cc(N3CCCC3)nc(N3CCCC3)n2)cc1 | > 100 µM (inactive) | 31 µM (active) | 0.707 µM (active) |
| COc1ccc(S(=O)(=O)/N=C2\C=C(Nc3ccc(O)cc3)C(=O)c3ccccc32)cc1 | – | – | 0.441 µM (active) |
| COc1ccc(/C=N/Nc2cc(N3CCCC3)nc(N3CCCC3)n2)cc1 | > 100 µM (inactive) | 5.23 µM (active) | 2.63 µM (active) |
